This is an account of results in patent US12686687B2, “Compounds and uses thereof” (Foghorn Therapeutics Inc., priority 2019, dated 2026).

A value given as a limit tells only on which side of the number the result lay.

In test [1] the test system is synovial sarcoma cell lines (SYO1, HS-SY-II, and ASKA). The test can be described thus: Growth of synovial sarcoma cell lines, daily treatment, crystal violet at day 14. In kind it is cell-based, human. As to conditions: treated daily, day 14 (FIG. 8). How it is done: (§1) Procedure: Cells were seeded into 6-well or 12-well plates and were treated daily with a BRD9 degrader (Compound 1), a bromo-domain BRD9 binder (Compound 2), E3 ligase binder (lenalidomide), DMSO, or staurosporin (positive control for cell killing), at indicated concentrations. The number of cells was optimized for each cell line. Growth media was refreshed every 5 days. By day 14, medium was removed, cells were washed with PBS, and stained using 500 μL of 0.005% (w/v) crystal violet solution in 25% (v/v) methanol for at least 1 hour at room temperature.

Test [2] deals with synovial sarcoma cell lines (SYO1, Yamato, HS-SY-II, and ASKA). The test can be described thus: Growth of synovial sarcoma cell lines (IncuCyte confluency, crystal violet staining, colony imaging). In kind it is cell-based, human. As to conditions: 1 μM or indicated concentrations (FIGS. 5-7). How it is done: (§2) Cells were treated with DMSO or the BRD9 degrader, Compound 1, at indicated concentrations, and proliferation was monitored from day 7 to day 14 by measuring confluency over time using an IncuCyte live cell analysis system (FIG. 5). Growth medium and compounds were refreshed every 3-4 days.
(§3) Cells were seeded into 12-well plates and treated with DMSO, 1 μM BRD9 inhibitor, Compound 2 (also known as BI-7273, see Martin et al, J Med Chem. 59(10):4462-4475 (2016); see structure of compound 2 below), or 1 μM BRD9 degrader, Compound 1.
(§4) The number of cells was optimized for each cell line. Growth medium and compounds were refreshed every 3-5 days. SYO1, Yamato, A549, 293T and HS-SY-II cells were fixed and stained at day 11. ASKA cells were fixed and stained at day 23. Staining was done by incubation with crystal violet solution (0.5 g Crystal Violet, 27 ml 37% Formaldehyde, 100 mL 10×PBS, 10 mL Methanol, 863 dH2O to 1 L) for 30 minutes followed by 3× washes with water and drying the plates for at least 24h at room temperature. Subsequently plates were scanned on an Odyssey CLx Imaging system (FIG. 6).
(§5) Cells were seeded into 96-well ultra low cluster plate (Costar, #7007) in 200 μL complete media and treated at day 2 with DMSO, Staurosporin, or BRD9 degrader, Compound 1, at indicated doses (FIG. 7).

In test [3] the test system is non-synovial control cancer cell lines (293T, A549, G401). The test can be described thus: Growth of non-synovial control cancer cell lines (crystal violet staining, colony imaging). In kind it is cell-based, human. As to conditions: 1 μM or indicated doses (FIGS. 5-7). Here is the method: as §2, §3, §4, §5
Test [4] has as its system non-synovial control cancer cell lines (RD, HCT116, and Calu6). Kind of test: Growth of non-synovial control cancer cell lines, daily treatment, crystal violet at day 14. It is filed as cell-based, human. As to conditions: treated daily, day 14 (FIG. 9). Here is the method: as §1
In test [5] the target is T1, BRD9 bromodomain (Flag-BRD9 P133-K239; Swiss Prot Q9H8M2) (Homo sapiens, UniProt Q9H8M2).
T1 construct: His-Flag-BRD9 (P133-K239); Swiss Prot Q9H8M2; His6 with TEV site (mgsshhhhhhenlyfq/) (N, cleaved yes); made in house
T1 sequence (Q9H8M2 133-239): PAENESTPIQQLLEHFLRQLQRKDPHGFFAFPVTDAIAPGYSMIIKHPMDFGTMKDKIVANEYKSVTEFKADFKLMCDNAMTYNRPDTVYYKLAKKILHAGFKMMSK
The test can be described thus: BRD9 bromodomain TR-FRET competition binding assay. As to conditions: 3 nM Flag-BRD9, 3.75 nM biotinylated ligand, 90 minutes at room temperature. Here is the method:
Cleaved His tag was removed by purification. […] DMSO or 3-fold serially diluted compounds were then added to the Proxiplate followed by addition of Flag-BRD9. After a 10-minute incubation at room temperature, Eu-W1024 anti-FLAG (PerkinElmer, AD0273) was added.
On the technique in general: In TR-FRET formats the signal depends on donor and acceptor labels being close together.

Test [6] deals with T2, Nanoluciferase-BRD9 fusion protein (3×FLAG-NLuc-BRD9) in SYO-1 cells (Homo sapiens, UniProt Q9H8M2).
T2 construct: expressed in transfected cells; host or cells: SYO-1
T2 sequence (Q9H8M2 1-597): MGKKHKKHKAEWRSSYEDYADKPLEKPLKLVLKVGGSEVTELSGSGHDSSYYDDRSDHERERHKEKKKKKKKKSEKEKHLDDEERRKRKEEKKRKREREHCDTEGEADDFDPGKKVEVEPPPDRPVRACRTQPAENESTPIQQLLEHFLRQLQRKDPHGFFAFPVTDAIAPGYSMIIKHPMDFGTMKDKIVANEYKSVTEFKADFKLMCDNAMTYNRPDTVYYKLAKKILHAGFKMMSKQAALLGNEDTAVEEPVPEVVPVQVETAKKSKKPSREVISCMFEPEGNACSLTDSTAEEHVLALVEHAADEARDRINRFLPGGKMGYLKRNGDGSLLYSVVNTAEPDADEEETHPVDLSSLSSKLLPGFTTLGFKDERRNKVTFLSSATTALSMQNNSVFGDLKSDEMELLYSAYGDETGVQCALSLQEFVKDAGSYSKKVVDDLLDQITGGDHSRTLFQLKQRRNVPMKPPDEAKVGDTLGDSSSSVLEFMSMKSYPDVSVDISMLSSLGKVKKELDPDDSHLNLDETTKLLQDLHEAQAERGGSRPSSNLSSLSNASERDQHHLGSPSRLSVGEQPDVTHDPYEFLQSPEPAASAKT
The test can be described thus: SYO1 BRD9 NanoLuc degradation assay. In kind it is cell-based. Particulars: 6 hours treatment, 1 μM top dose; read-out: SYO1 BRD9-NanoLuc degradation IC50. In outline: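 Stable SYO-1 line expressing 3×FLAG-NLuc-BRD9 was seeded at 8000 cells/well, then treated next day for 6 h with 10-point 3-fold dilutions (top 1 μM final). Nano-Glo luminescence was read. % inhibition was normalised to DMSO (high control) and 1 μM reference BRD9 degrader (low control).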

`COc1cc(-c2cn(C)c(=O)c3cnccc23)cc(OC)c1CN(C)C` [Compound 2]: the “inhibition of cell growth” value is reported as “inhibition of the growth of the cells” in test [1], “inhibition of the growth of the cells” in test [2], “does not result in inhibition of the growth” in test [3] and “did not result in inhibition of the growth” in test [4].

On to `COc1cc(-c2cn(C)c(=O)c3cc(NC(=O)C4CCCN(C(=O)CCOCCOCCNc5cccc6c5C(=O)N(C5CCC(=O)NC5=O)C6=O)C4)sc23)cc(OC)c1CN(C)C` (centres unmarked) [Compound D5, N-(7-[4-[(dimethylamino)methyl]-3,5-dimethoxyphenyl]-5-methyl-4-oxothieno[3,2-c]pyridin-2-yl)-1-[3-[2-(2-[[2-(2,6-dioxopiperidin-3-yl)-1,3-dioxoisoindol-4-yl]amino]ethoxy)ethoxy]propanoyl]piperidine-3-carboxamide], for which the IC50 (usually the concentration at which inhibition is half-maximal) in test [5] is over 100 nM. In addition, the DC50 in test [6] was over 1000 nM.

Regarding `COc1cc(-c2cn(C)c(=O)c3cc(NC(=O)C4CCN(CCCCCOc5cccc6c5C(=O)N(C5CCC(=O)NC5=O)C6=O)CC4)sc23)cc(OC)c1CN(C)C` (centres unmarked) [Compound D6, N-(7-[4-[(dimethylamino)methyl]-3,5-dimethoxyphenyl]-5-methyl-4-oxothieno[3,2-c]pyridin-2-yl)-1-(5-[[2-(2,6-dioxopiperidin-3-yl)-1,3-dioxoisoindol-4-yl]oxy]pentyl)piperidine-4-carboxamide], the IC50 in test [5] is under 10 nM. Also, the DC50 in test [6] is over 1000 nM.

Compound `COc1cc(-c2cn(C)c(=O)c3cc(NC(=O)[C@@H]4CCCN(C(=O)CCCCOc5cccc6c5C(=O)N(C5CCC(=O)NC5=O)C6=O)C4)sc23)cc(OC)c1CN(C)C` (stereo partly drawn) [Compound D7, (3R)—N-(7-[4-[(dimethylamino)methyl]-3,5-dimethoxyphenyl]-5-methyl-4-oxothieno[3,2-c]pyridin-2-yl)-1-(5-[[2-(2,6-dioxopiperidin-3-yl)-1,3-dioxoisoindol-4-yl]oxy]pentanoyl)piperidine-3-carboxamide] displayed an IC50 in test [5] of over 100 nM. Moreover, in test [6], the DC50 was over 100 nM.

As for `COc1cc(-c2cn(C)c(=O)c3cc(NC(=O)[C@H]4CCCN(C(=O)CCCCOc5cccc6c5C(=O)N(C5CCC(=O)NC5=O)C6=O)C4)sc23)cc(OC)c1CN(C)C` (stereo partly drawn) [Compound D8, (3S)—N-(7-[4-[(dimethylamino)methyl]-3,5-dimethoxyphenyl]-5-methyl-4-oxothieno[3,2-c]pyridin-2-yl)-1-(5-[[2-(2,6-dioxopiperidin-3-yl)-1,3-dioxoisoindol-4-yl]oxy]pentanoyl)piperidine-3-carboxamide], the IC50 in test [5] is over 100 nM. Also, the DC50 in test [6] was over 100 nM.

In test [5], `COc1cc(-c2cn(C)c(=O)c3cc(NC(=O)C4CCCN(CCCCCOc5cccc6c5C(=O)N(C5CCC(=O)NC5=O)C6=O)C4)sc23)cc(OC)c1CN(C)C` (centres unmarked) [Compound D9, N-(7-[4-[(dimethylamino)methyl]-3,5-dimethoxyphenyl]-5-methyl-4-oxothieno[3,2-c]pyridin-2-yl)-1-(5-[[2-(2,6-dioxopiperidin-3-yl)-1,3-dioxoisoindol-4-yl]oxy]pentyl)piperidine-3-carboxamide] gave an IC50 of over 10 nM. Also, the DC50 in test [6] is over 1000 nM.

The compound `COc1cc(-c2cn(C)c(=O)c3cc(C(=O)NC4CCN(C(=O)CCCCOc5cccc6c5C(=O)N(C5CCC(=O)NC5=O)C6=O)CC4)sc23)cc(OC)c1CN(C)C` (centres unmarked) [Compound D10, 7-(4-((dimethylamino)methyl)-3,5-dimethoxyphenyl)-N-(1-(5-((2-(2,6-dioxopiperidin-3-yl)-1,3-dioxoisoindolin-4-yl)oxy)pentanoyl)piperidin-4-yl)-5-methyl-4-oxo-4,5-dihydrothieno[3,2-c]pyridine-2-carboxamide] returned an IC50 in test [5] of under 10 nM. Besides, the DC50 in test [6] was under 10 nM.

In the case of `COc1cc(-c2cn(C)c(=O)c3cc(C(=O)NC4CCN(CCCCCOc5cccc6c5C(=O)N(C5CCC(=O)NC5=O)C6=O)CC4)sc23)cc(OC)c1CN(C)C` (centres unmarked) [Compound D11, 7-(4-((dimethylamino)methyl)-3,5-dimethoxyphenyl)-N-(1-(5-((2-(2,6-dioxopiperidin-3-yl)-1,3-dioxoisoindolin-4-yl)oxy)pentyl)piperidin-4-yl)-5-methyl-4-oxo-4,5-dihydrothieno[3,2-c]pyridine-2-carboxamide], in test [5], the IC50 is under 10 nM. In test [6], the DC50 is over 1000 nM.

For `COc1cc(-c2cn(C)c(=O)c3cc(NC(=O)C4CCN(C(=O)CCCCOc5cccc6c5C(=O)N(C5CCC(=O)NC5=O)C6=O)CC4)sc23)cc(OC)c1CN(C)C` (centres unmarked) [Compound D12, N-(7-[4-[(dimethylamino)methyl]-3,5-dimethoxyphenyl]-5-methyl-4-oxothieno[3,2-c]pyridin-2-yl)-1-(5-[[2-(2,6-dioxopiperidin-3-yl)-1,3-dioxoisoindol-4-yl]oxy]pentanoyl)piperidine-4 carboxamide], the IC50 in test [5] was under 10 nM. The DC50 in test [6] is under 10 nM.

Regarding `COc1cc(-c2cn(C)c(=O)c3cc(C(=O)NC4CCN(CCCCCOc5cccc6c5C(=O)N(C5CCC(=O)NC5=O)C6=O)CC4(F)F)sc23)cc(OC)c1CN(C)C` (centres unmarked) [Compound D13, 7-[4-[(dimethylamino)methyl]-3,5-dimethoxyphenyl]-N-[1-(5-[[2-(2,6-dioxopiperidin-3-yl)-1,3-dioxoisoindol-4-yl]oxy]pentyl)-3,3-difluoropiperidin-4-yl]-5-methyl-4-oxothieno[3,2-c]pyridine-2-carboxamide], the concentration for half-maximal inhibition (IC50) in test [5] was under 10 nM. In addition, the DC50 in test [6] is under 10 nM.

`COc1cc(-c2cn(C)c(=O)c3cc(C(=O)NC4CCN(C)CC4)sc23)cc(OC)c1CN(C)CC(=O)NCCOCCOc1cccc2c1C(=O)N(C1CCC(=O)NC1=O)C2=O` (centres unmarked) [Compound D14, 7-(4-[[([[2-(2-[[2-(2,6-dioxopiperidin-3-yl)-1,3-dioxoisoindol-4 yl]oxy]ethoxy)ethyl]carbamoyl]methyl)(methyl)amino]methyl]-3,5-dimethoxyphenyl)-5-methyl-N-(1-methylpiperidin-4-yl)-4-oxothieno[3,2-c]pyridine-2-carboxamide]: the IC50 in test [5] is over 10 nM. In test [6], the DC50 was over 100 nM.

On to `COc1cc(-c2cn(C)c(=O)c3cc(C(=O)NC4CCN(CCCCCOc5ccc6c(c5)C(=O)N(C5CCC(=O)NC5=O)C6=O)CC4(F)F)sc23)cc(OC)c1CN(C)C` (centres unmarked) [Compound D15, 7-[4-[(dimethylamino)methyl]-3,5-dimethoxyphenyl]-N-[1-(5-[[2-(2,6-dioxopiperidin-3-yl)-1,3-dioxoisoindol-5-yl]oxy]pentyl)-3,3-difluoropiperidin-4-yl]-5-methyl-4-oxothieno[3,2-c]pyridine-2-carboxamide], for which the IC50 in test [5] is under 10 nM. Also, in test [6], the DC50 is under 10 nM.
